In patent US11534412B2, “Application of totarol and pharmaceutical composition containing totarol” (Emergopharm SP. Z O.O. SP.K., priority 2017, dated 2022):

Tested on: Enterococcus faecalis - clinical strain
Experiment: Determination of the MIC value of totarol, broth dilution in 96-well plates with OD and quantitative culture
Type: cell-based
Conditions: for OD, average of 3 measurements: 620 nm
Method: Test of antibacterial activity of totarol using DMI (dimethylisosorbide) as a solvent.
1 ml of the suspension was collected to 9 ml of a TSB broth ([…]). Suspensions with a dilution of 10^−6 were prepared in the described way. A suspension with a cell density of 10^5 cfu/ml was selected for further investigations. For each strain, 2 96-well plates were prepared: the first one was intended for the OD measurement, the second one—for quantitative culture on solid media. • A/ to wells B1-D1, B2-D2 and B-D 4-11, 100 µl of the broth were added; • B/ to wells B3-D3, 200 µl of the broth were added; • C/ to wells B1-D1, 1 µl of stock I was added; • D/ to wells B2-D2, 1 µl of stock II was added; • E/ to wells B3-D3, 2 µl of stock III were added. Using a multichannel pipette, 100 µl of the sample were collected from each of the B3-D3 wells and placed in wells B4-D4 (mixing by sucking the content in and letting it out for 5 times). The pipette tips were replaced and 100 µl of the content were collected from of the B4-D4 wells, and placed in wells B5-D5, mixing as previously. These operations were repeated through the wells B11-D11. The content in the B11-D11 wells was mixed, and 100 µl of the fluid were collected and discarded. This way, a series of dilutions of totarol samples in DMI in the range of 0.32% to 0.0004% was obtained. Then, 100 µl of a corresponding bacterial culture were added to the wells B, C, D 1-11. In consequence, a change in the final concentration range occurred, to 0.16%-0.0002%. Control Preparation: • Negative control: 100 µl of the broth+1 pl DMI were added to the Al well. • Positive control (I): 100 µl of the broth with the bacterial culture were added to the wells E1-G1. • Diluent positive control (II): 100 µl of the broth with the bacterial culture+1 pl DMI were added to the wells E2-G2. The OD value in the individual wells was read at the wavelength of 620 nm (read time 0). From the second 96-well plate, a culture was inoculated by a quantitative method from every dilution onto a well with a proper solid medium, and incubated for 24 h at 37° C. under aerobic or anaerobic conditions, depending on the strain. The plates were incubated under aerobic conditions or in an atmosphere of an elevated CO2 concentration (for the strains requiring it) in an incubator at 37° C. The OD was read after 8 h, 16 h, and 24 h, respectively. Before every OD measurement, the contents of the wells were mixed delicately. In parallel to the OD readout, cultures we inoculated from the second 96-well plate, from every dilution, into plates with a proper solid medium, and incubated for 24 h at 37° C., under aerobic or anaerobic conditions. For the analysis of the experimental results, an average value of the OD measurement obtained from three repetitions in the individual times (0, 8, 16, and 24 h) for the individual microbes (Gardnerella vaginalis, Streptococcus agalactiae, Enterococcus faecalis, Lactobacillus gasseri/plantarum) was taken. Additionally, the number of bacteria grown on solid media was taken into account. The results of the tests confirm the specific, concentration-dependent selectiveness, and the high antibacterial effectiveness of totarol against the pathogenic microorganisms: Gardnerella vaginalis, Streptococcus agalactiae, Enterococcus faecalis at low MIC values safe for bacteria of the Lactobacillus genus.

`CC(C)c1c(O)ccc2c1CC[C@H]1C(C)(C)CCC[C@]21C` [Totarol, totarol] was tested, and the MIC value (E. faecalis) was 0.0025%, the Inoculation cfu/ml (totarol 0.0002%, 0 h) was 4 × 10^5 cfu/ml and the “OD, average of 3 measurements” value (totarol 0.0002%, 0 h) was 0.292. The Inoculation cfu/ml (totarol 0.0002%, 8 h) was 4.1 × 10^5 cfu/ml, the “OD, average of 3 measurements” value (totarol 0.0002%, 8 h) was 0.295 and the Inoculation cfu/ml (totarol 0.0002%, 16 h) was 2.1 × 10^6 cfu/ml. The “OD, average of 3 measurements” value (totarol 0.0002%, 16 h) was 0.490, the Inoculation cfu/ml (totarol 0.0002%, 24 h) was 1.6 × 10^7 cfu/ml and the “OD, average of 3 measurements” value (totarol 0.0002%, 24 h) was 0.681. The Inoculation cfu/ml (totarol 0.0004%, 0 h) was 3 × 10^5 cfu/ml, the “OD, average of 3 measurements” value (totarol 0.0004%, 0 h) was 0.298 and the Inoculation cfu/ml (totarol 0.0004%, 8 h) was 2.1 × 10^5 cfu/ml. For the same compound, the “OD, average of 3 measurements” value (totarol 0.0004%, 8 h) was 0.303, the Inoculation cfu/ml (totarol 0.0004%, 16 h) was 1.1 × 10^6 cfu/ml and the “OD, average of 3 measurements” value (totarol 0.0004%, 16 h) was 0.491. For the same compound, the Inoculation cfu/ml (totarol 0.0004%, 24 h) was 1.9 × 10^7 cfu/ml, the “OD, average of 3 measurements” value (totarol 0.0004%, 24 h) was 0.677 and the Inoculation cfu/ml (totarol 0.0007%, 0 h) was 2.5 × 10^5 cfu/ml. For the same compound, the “OD, average of 3 measurements” value (totarol 0.0007%, 0 h) was 0.288, the Inoculation cfu/ml (totarol 0.0007%, 8 h) was 3.1 × 10^5 cfu/ml and the “OD, average of 3 measurements” value (totarol 0.0007%, 8 h) was 0.291. For the same compound, the Inoculation cfu/ml (totarol 0.0007%, 16 h) was 3.8 × 10^5 cfu/ml, the “OD, average of 3 measurements” value (totarol 0.0007%, 16 h) was 0.445 and the Inoculation cfu/ml (totarol 0.0007%, 24 h) was 2.1 × 10^7 cfu/ml. For the same compound, the “OD, average of 3 measurements” value (totarol 0.0007%, 24 h) was 0.602, the Inoculation cfu/ml (totarol 0.0013%, 0 h) was 4 × 10^5 cfu/ml and the “OD, average of 3 measurements” value (totarol 0.0013%, 0 h) was 0.293. For the same compound, the Inoculation cfu/ml (totarol 0.0013%, 8 h) was 6 × 10^4 cfu/ml, the “OD, average of 3 measurements” value (totarol 0.0013%, 8 h) was 0.297 and the Inoculation cfu/ml (totarol 0.0013%, 16 h) was 6 × 10^4 cfu/ml. The “OD, average of 3 measurements” value (totarol 0.0013%, 16 h) was 0.399, the Inoculation cfu/ml (totarol 0.0013%, 24 h) was 1 × 10^7 cfu/ml and the “OD, average of 3 measurements” value (totarol 0.0013%, 24 h) was 0.549. For the same compound, the Inoculation cfu/ml (totarol 0.0025%, 0 h) was 5 × 10^5 cfu/ml, the “OD, average of 3 measurements” value (totarol 0.0025%, 0 h) was 0.284 and the Inoculation cfu/ml (totarol 0.0025%, 8 h) was 0 cfu/ml. The “OD, average of 3 measurements” value (totarol 0.0025%, 8 h) was 0.297, the Inoculation cfu/ml (totarol 0.0025%, 16 h) was 0 cfu/ml and the “OD, average of 3 measurements” value (totarol 0.0025%, 16 h) was 0.295. For the same compound, the Inoculation cfu/ml (totarol 0.0025%, 24 h) was 0 cfu/ml, the “OD, average of 3 measurements” value (totarol 0.0025%, 24 h) was 0.302 and the Inoculation cfu/ml (totarol 0.005%, 0 h) was 6 × 10^5 cfu/ml. The “OD, average of 3 measurements” value (totarol 0.005%, 0 h) was 0.302, the Inoculation cfu/ml (totarol 0.005%, 8 h) was 0 cfu/ml and the “OD, average of 3 measurements” value (totarol 0.005%, 8 h) was 0.349. For the same compound, the Inoculation cfu/ml (totarol 0.005%, 16 h) was 0 cfu/ml, the “OD, average of 3 measurements” value (totarol 0.005%, 16 h) was 0.320 and the Inoculation cfu/ml (totarol 0.005%, 24 h) was 0 cfu/ml. The “OD, average of 3 measurements” value (totarol 0.005%, 24 h) was 0.296, the Inoculation cfu/ml (totarol 0.01%, 0 h) was 4.1 × 10^5 cfu/ml and the “OD, average of 3 measurements” value (totarol 0.01%, 0 h) was 0.302. The Inoculation cfu/ml (totarol 0.01%, 8 h) was 0 cfu/ml, the “OD, average of 3 measurements” value (totarol 0.01%, 8 h) was 0.419 and the Inoculation cfu/ml (totarol 0.01%, 16 h) was 0 cfu/ml. The “OD, average of 3 measurements” value (totarol 0.01%, 16 h) was 0.368, the Inoculation cfu/ml (totarol 0.01%, 24 h) was 0 cfu/ml and the “OD, average of 3 measurements” value (totarol 0.01%, 24 h) was 0.306. For the same compound, the Inoculation cfu/ml (totarol 0.02%, 0 h) was 3.1 × 10^5 cfu/ml, the “OD, average of 3 measurements” value (totarol 0.02%, 0 h) was 0.322 and the Inoculation cfu/ml (totarol 0.02%, 8 h) was 0 cfu/ml. For the same compound, the “OD, average of 3 measurements” value (totarol 0.02%, 8 h) was 0.384, the Inoculation cfu/ml (totarol 0.02%, 16 h) was 0 cfu/ml and the “OD, average of 3 measurements” value (totarol 0.02%, 16 h) was 0.374. The Inoculation cfu/ml (totarol 0.02%, 24 h) was 0 cfu/ml, the “OD, average of 3 measurements” value (totarol 0.02%, 24 h) was 0.371 and the Inoculation cfu/ml (totarol 0.04%, 0 h) was 2.6 × 10^5 cfu/ml. The “OD, average of 3 measurements” value (totarol 0.04%, 0 h) was 0.552, the Inoculation cfu/ml (totarol 0.04%, 8 h) was 0 cfu/ml and the “OD, average of 3 measurements” value (totarol 0.04%, 8 h) was 0.667. For the same compound, the Inoculation cfu/ml (totarol 0.04%, 16 h) was 0 cfu/ml, the “OD, average of 3 measurements” value (totarol 0.04%, 16 h) was 0.555 and the Inoculation cfu/ml (totarol 0.04%, 24 h) was 0 cfu/ml. The “OD, average of 3 measurements” value (totarol 0.04%, 24 h) was 0.538, the Inoculation cfu/ml (totarol 0.08%, 0 h) was 3.2 × 10^5 cfu/ml and the “OD, average of 3 measurements” value (totarol 0.08%, 0 h) was 0.448. For the same compound, the Inoculation cfu/ml (totarol 0.08%, 8 h) was 0 cfu/ml, the “OD, average of 3 measurements” value (totarol 0.08%, 8 h) was 0.539 and the Inoculation cfu/ml (totarol 0.08%, 16 h) was 0 cfu/ml. The “OD, average of 3 measurements” value (totarol 0.08%, 16 h) was 0.499, the Inoculation cfu/ml (totarol 0.08%, 24 h) was 0 cfu/ml and the “OD, average of 3 measurements” value (totarol 0.08%, 24 h) was 0.491. For the same compound, the Inoculation cfu/ml (totarol 0.16%, 0 h) was 6 × 10^5 cfu/ml, the “OD, average of 3 measurements” value (totarol 0.16%, 0 h) was 0.638 and the Inoculation cfu/ml (totarol 0.16%, 8 h) was 0 cfu/ml. The “OD, average of 3 measurements” value (totarol 0.16%, 8 h) was 0.651, the Inoculation cfu/ml (totarol 0.16%, 16 h) was 0 cfu/ml and the “OD, average of 3 measurements” value (totarol 0.16%, 16 h) was 0.510. The Inoculation cfu/ml (totarol 0.16%, 24 h) was 0 cfu/ml and the “OD, average of 3 measurements” value (totarol 0.16%, 24 h) was 0.369.
